Reference: paper PMC10571957, “αV-Integrin-Dependent Inhibition of Glioblastoma Cell Migration, Invasion and Vasculogenic Mimicry by the uPAcyclin Decapeptide” (Cancers, 2023)
Several values for one entry are separate records, joined by “and”; a condition that tells them apart may be missing. Equal entries are not always repeated.

Columns and labels:
C6 cells = assay: Cell viability/proliferation (Trypan blue, MTT), C6; format: cell-based, rat; conditions: C6, Trypan blue exclusion and MTT
Protocol: Cell viability was tested in DMEM/10% FBS, in the presence of 1 nM or 100 nM uPAcyclin, either by Trypan blue exclusion or by thiazolyl blue tetrazolium bromide (MTT) assays, as specified in the figure legends. For the Trypan blue assay, 4 × 10^4 U87-MG, U251-MG, U138-MG, and C6 cells/sample were grown in 12-well plates, and followed for 24, 48 and 72 h. As a negative control, the cells were grown in a serum-free medium. Then, the cells were detached, stained with a 0.2% (w/v) Trypan blue solution, counted using a Burker chamber (T0 = 100%), and reported as number of viable cells/total.
For the MTT assay, 5 × 10^3 U87-MG and C6 cells/well were grown in 96-well plates for 24 h and tested as previously described. Briefly, MTT (Invitrogen-Life Technologies, Eugene, OR, USA) 5 mg/mL in a PBS solution was added to wells at a 10% final concentration, and incubated for 3 h at 37 °C, followed by the addition of stop solution (100 µL of DMSO/well) for 1 h at room temperature. Then, the optical densities were measured at 495 nm using the Microplate Reader (Synergy HT, Bio-Tek, Winoosky, VT, USA). The cell viability rate was calculated as a percentage by reporting the mean absorbance of treated groups to control groups, as follows: Cell viability rate (%) = (Atreated group/Acontrol group) × 100.

U87-MG cells = assay: Vasculogenic mimicry (tube formation on Geltrex), U87-MG; format: cell-based, human; conditions: for reduction in branching points: 24 h, Geltrex
Protocol: The tube formation assay was performed in 96-well plates pre-coated with 50 µL/well of Geltrex^TM (Thermofisher, Scientific, Waltham, MA, USA), and polymerized for 30 min at 37 °C. Briefly, 3 × 10^4 U87-MG, 1.5 × 10^4 U251, and 1 × 10^4 C6 cells/100µL/well were plated onto Geltrex^TM and monitored at 37 °C for the indicated times. The specific effectors were included at time 0. The formation of vascular-like structures by Geltrex^TM-plated U87-MG and U251-MG cells was monitored for 24 h, whereas C6 cells were tested for 16 h. The evaluation of the branching point number, defined as the intersection of at least 3 tubes [24], was performed using the Inverted Microscope DMI Leica 6000 for the U87-MG and U251-MG cells and the Inverted Microscope Axiovert 25 for the C6 cells. At the indicated times, the number of “branching points” was assessed in 4/5 random fields using the ImageJ 1.52a Software.
Figure 6 Vascular mimicry formation by U87-MG and effect of uPAcyclin. (A) Representative images of U87-MG cells pre-treated or not (untreated) for 40 min at 37 °C with uPAcyclin (1 nM and 100 nM) and then plated onto Geltrex^TM in multiwell-96 (3 × 10^4/well). As a control, cells were grown in the presence of DMEM/10% FBS (No matrix) or with Geltrex^TM (Untreated, Untd). Images are taken at 24 h using the Inverted Microscope DMI Leica 6000 with 50× total magnification, scale bar: 75 µm. (B) The quantitation of branching points, defined as the intersection of at least three tubes [24], was performed at 4, 8, and 24 h either in control cells and cells pre-treated for 40 min at 37 °C with 10 pM, 1 nM, and 100 nM uPAcyclin before plating onto Geltrex^TM. (C) U87-MG cells were pre-treated with uPAcyclin or with S-uPAcyclin, at the indicated concentrations, plated onto Geltrex^TM and, 24 h later, the number of branching points was evaluated and reported in the histogram (* p-value < 0.05; ** p-value < 0.005; *** p-value < 0.001).

U251-MG cells = assay: Boyden chamber migration (chemotaxis), U251-MG; format: cell-based, human; conditions: for migrated cells n°/field / migration, % of basal / migration, % of basal, average 2 expts / migration, % of basal, average expt 1 / migration, % of basal, average expt 2 / migration, % of basal, T-test list: sheet data scrambled; for migration, % of basal, average 2 expts: mean of 2 expts; for migration, % of basal, average expt 1: mean of expt 1; for migration, % of basal, average expt 2: mean of expt 2; for migration, % of basal, T-test list: single replicates
Protocol: The migration and invasion assays were performed using Boyden chambers and 8 µm pore size PVP-free filters coated with 50 µg/mL of collagen type VI (Sigma), as previously described. For the invasion assays, collagen-coated filters were further coated with 50 µg/mL Matrigel^TM (Sigma). Briefly, 11 × 10^4 U87-MG, 4 × 10^4 U251-MG, or 4 × 10^4 U138-MG/sample were pre-treated for 40 min at 37 °C with the indicated effectors. Then, the cells were allowed to migrate for 3 h or to invade for 5 h at 37 °C toward 5% FBS in DMEM/0.1% BSA. At the end of both assays, the cells on the lower filter surface were fixed, stained with haematoxylin, and counted under an optical microscope (Zeiss Axiophot, Carl Zeiss, Milan, Italy) at 20× magnification. The migration and invasion experiments were conducted in triplicate for U87-MG and in duplicate for U251-MG and U138-MG. The migrated or invaded cells were reported as percentage of basal migration or invasion in the presence of DMEM/0.1% BSA, taken as 100%, and analyzed as reported in Section 2.11.
Figure 3 Inhibition of U87-MG, U251-MG, and U138-MG GBM cellular migration by uPAcyclin. Quantitative analysis of U87-MG (A), U251-MG (B), and U138-MG (C) directional migration. A total of 11 × 10^4 U87-MG/sample or 4 × 10^4 U251-MG or U138-MG/sample were pre-treated for 40 min at 37 °C with uPAcyclin or S-peptide at the indicated concentrations, anti-αV polyclonal (anti-αV Pclonal) or monoclonal (anti-αV MoAb) antibody, or anti-GAPDH, and anti-α2 monoclonal antibody (anti-α2 MoAb), and then assayed in Boyden chambers at 37 °C, either for basal (BSA) or directional 5% FBS-dependent migration for 3 h at 37 °C. At the end of incubation, the filters were processed as described in Methods. Basal migration was taken as 100% and all values were calculated relative to that (* p-value < 0.05; ** p-value < 0.005; *** p-value < 0.001).

[1] = 100 nM, 5% FBS, 3 h, expt 1, duplicates
[2] = 100 nM, 5% FBS, 3 h, expt 2, duplicates
[3] = 1 nM, 5% FBS, 3 h, expt 1, duplicates
[4] = 1 nM, 5% FBS, 3 h, expt 2, duplicates

## Ac-K^1P[ESPPEELK^10]-NH2 (sidechain bridge or staple) [uPAcyclin]
C6 cells
  proliferation/viability: proliferation and viability are not affected by uPAcyclin
U87-MG cells; 10 pM, 10 nM (legend: 1 nM), 100 nM, U87-MG, 4, 8, 24 h
  branching point number, in words: concentration-dependent reduction in the branching point number
U87-MG cells; 1 nM, U87-MG
  reduction in branching points: approximately 60%
U87-MG cells; 100 nM, U87-MG, 14 h, serum-free
  VM formation by time-lapse videomicroscopy, in words: inhibited and delayed
U87-MG cells; 100 nM, U87-MG
  reduction in branching points: approximately 60%
U251-MG cells; 1 nM, U251-MG, 5% FBS, 3 h
  inhibition of migration: 70–80%
U251-MG cells; 1 nM
  migration, % of the basal, average all expts: 99%
U251-MG cells; 100 nM, U251-MG, 5% FBS, 3 h
  migration, in words: below background levels
U251-MG cells; 100 nM
  migration, % of the basal, average all expts: 83%
  migration, % of basal, average 2 expts: 99.2955%
  migration, % of basal, average expt 1: 89.5%
  migration, % of basal, average expt 2: 109.091%
  migration, % of basal, T-test list: 86 and 93 and 95
U251-MG cells; [1]
  migrated cells n°/field: 12 cells n°/field and 13 cells n°/field
  migration, % of basal: 86% and 93%
U251-MG cells; [2]
  migrated cells n°/field: 27 cells n°/field and 21 cells n°/field
  migration, % of basal: 123% and 95%

## Ac-PS[EELKPEPK]-NH2 (sidechain bridge or staple) [S-uPAcyclin, scrambled control peptide]
U87-MG cells; scrambled control, U87-MG
  reduction in branching points: approximately 20%
U251-MG cells; 1 nM
  migration, % of the basal, average all expts: 176%
  migration, % of basal, average 2 expts: 176.045%
  migration, % of basal, average expt 1: 193%
  migration, % of basal, average expt 2: 159.091%
  migration, % of basal, T-test list: 200 and 186 and 145 and 172
U251-MG cells; [3]
  migrated cells n°/field: 28 cells n°/field and 26 cells n°/field
  migration, % of basal: 200% and 186%
U251-MG cells; [4]
  migrated cells n°/field: 32 cells n°/field and 38 cells n°/field
  migration, % of basal: 145% and 172%
U251-MG cells; 100 nM
  migration, % of the basal, average all expts: 157%
  migration, % of basal, average 2 expts: 157.432%
  migration, % of basal, average expt 1: 153.5%
  migration, % of basal, average expt 2: 161.364%
  migration, % of basal, T-test list: 164 and 143 and 159
U251-MG cells; [1]
  migrated cells n°/field: 23 cells n°/field and 20 cells n°/field
  migration, % of basal: 164% and 143%
U251-MG cells; [2]
  migrated cells n°/field: 35 cells n°/field and 36 cells n°/field
  migration, % of basal: 159% and 163%
